Results from US10987359B2, “Oxadiazepinone derivatives and methods of treating hepatitis B infections” (priority 2016, dated 2021).

System: HBV
Experiment: HBV replication inhibition assay (BDNA assay) in HepG2.2.15 cells
Format: cell-based
Settings: HBV replication assay (BDNA assay), HepG2.2.15 cells; read-out: DNA EC50
In short: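 Supernatant encapsidated HBV DNA was measured by bDNA after DNase digestion and proteinase K release. Stably HBV-integrated HepG2.2.15 cells had two 3-day compound exposures (0.5% DMSO). Signals were background-subtracted and normalized to DMSO wells, and EC50 was obtained by four-parameter fit.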

Compound	EC50 [nM]
CC(=O)NCC1Cn2nc3c(c2C(=O)N(C)O1)CN(C(=O)Nc1ccc(F)c(C(F)(F)F)c1)[C@H](C)C3 (single isomer, unassigned) [Compound 177_D2, (4R*,9R)-4-(acetamidomethyl)-N-(4-fluoro-3-(trifluoromethyl)phenyl)-2,9-dimethyl-1-oxo-1,4,5,8,9,11-hexahydropyrido[4′,3′:3,4]pyrazolo[5,1-d][1,2,5]oxadiazepine-10(2H)-carboxamide]	1 to 100
C[C@@H]1Cc2nn3c(c2CN1C(=O)Nc1ccc(F)c(C(F)(F)F)c1)C(=O)N(C)OC(COCC(F)F)C3 (stereo in doubt) [Compound 126_D1, (4S*,9R)-4-((2,2-difluoroethoxy)methyl)-N-(4-fluoro-3-(trifluoromethyl)phenyl)-2,9-dimethyl-1-oxo-1,4,5,8,9,11-hexahydropyrido[4′,3′:3,4]pyrazolo[5,1-d][1,2,5]oxadiazepine-10(2H)-carboxamide]	100 to 500
CC(=O)NCC1Cn2nc3c(c2C(=O)N(C)O1)CN(C(=O)Nc1ccc(F)c(C#N)c1)[C@H](C)C3 (single isomer, unassigned) [Compound 176_D1, (4S*,9R)-4-(acetamidomethyl)-N-(3-cyano-4-fluorophenyl)-2,9-dimethyl-1-oxo-1,4,5,8,9,11-hexahydropyrido[4′,3′:3,4]pyrazolo[5,1-d][1,2,5]oxadiazepine-10(2H)-carboxamide]	100 to 500

Same assay, conditions: Hepatitis B virus, HepG2.2.15, HBV replication assay (BDNA assay), HepG2.2.15 cells; read-out: DNA EC50

Compound	EC50 [nM]
C[C@@H]1Cc2nn3c(c2CN1C(=O)Nc1ccc(F)c(C#N)c1)C(=O)N(C)OC(CF)C3 (stereo in doubt) [Compound 087_E1, (4S*,9R)—N-(3-cyano-4-fluorophenyl)-4-(fluoromethyl)-2,9-dimethyl-1-oxo-1,4,5,8,9,11-hexahydropyrido[4′,3′:3,4]pyrazolo[5,1-d][1,2,5]oxadiazepine-10(2H)-carboxamide]	1 to 100
CCCOCC1Cn2nc3c(c2C(=O)N(C)O1)CN(C(=O)Nc1ccc(F)c(Cl)c1)CC3 (stereo not drawn) [Compound 103, N-(3-chloro-4-fluoro-phenyl)-2-methyl-1-oxo-4-(propoxymethyl)-5,8,9,11-tetrahydro-4H-pyrido[2,3]pyrazolo[2,4-d][1,2,5]oxadiazepine-10-carboxamide]	1 to 100
CN1OC(CO)Cn2nc3c(c2C1=O)CN(C(=O)Nc1cc(C#N)ccc1F)CC3 (single isomer, unassigned) [Compound 145_E1, (S*)—N-(5-cyano-2-fluorophenyl)-4-(hydroxymethyl)-2-methyl-1-oxo-1,4,5,8,9,11-hexahydropyrido[4′,3′:3,4]pyrazolo[5,1-d][1,2,5]oxadiazepine-10(2H)-carboxamide]	> 1000
COC(=O)C1Cn2nc3c(c2C(=O)N(C)O1)CN(C(=O)Nc1ccc(F)c(Cl)c1)CC3 (stereo not drawn) [Compound 071, methyl 10-[(3-chloro-4-fluoro-phenyl)carbamoyl]-2-methyl-1-oxo-5,8,9,11-tetrahydro-4H-pyrido[2,3]pyrazolo[2,4-d][1,2,5]oxadiazepine-4-carboxylate]	> 1000
CN(CC(F)F)C(=O)C1Cn2nc3c(c2C(=O)N(C)O1)CN(C(=O)Nc1ccc(F)c(C#N)c1F)CC3 (stereo not drawn) [Compound 161, N10-(3-cyano-2,4-difluorophenyl)-N4-(2,2-difluoroethyl)-N4,2-dimethyl-1-oxo-1,4,5,8,9,11-hexahydropyrido[4′,3′:3,4]pyrazolo[5,1-d][1,2,5]oxadiazepine-4,10(2H)-dicarboxamide]	1 to 100
CN1OC(CNS(=O)(=O)CC(F)(F)F)Cn2nc3c(c2C1=O)CN(C(=O)Nc1ccc(F)c(Cl)c1)CC3 (stereo not drawn) [Compound 130, N-(3-chloro-4-fluorophenyl)-2-methyl-1-oxo-4-(((2,2,2-trifluoroethyl)sulfonamido)methyl)-1,4,5,8,9,11-hexahydropyrido[4′,3′:3,4]pyrazolo[5,1-d][1,2,5]oxadiazepine-10(2H)-carboxamide]	1 to 100
CN1OC(CO)Cn2nc3c(c2C1=O)CN(C(=O)Nc1ccc(F)c(Br)c1F)CC3 (stereo not drawn) [Compound 010, N-(3-bromo-2,4-difluorophenyl)-4-(hydroxymethyl)-2-methyl-1-oxo-1,4,5,8,9,11-hexahydropyrido[4′,3′:3,4]pyrazolo[5,1-d][1,2,5]oxadiazepine-10(2H)-carboxamide]	1 to 100
CC[C@@H]1Cc2nn3c(c2CN1C(=O)Nc1ccc(F)c(Cl)c1)C(=O)N(C)O[C@H](CO)C3 (stereo in doubt) [Compound 109_D2, (4S*,9R*)—N-(3-chloro-4-fluorophenyl)-9-ethyl-4-(hydroxymethyl)-2-methyl-1-oxo-1,4,5,8,9,11-hexahydropyrido[4′,3′:3,4]pyrazolo[5,1-d][1,2,5]oxadiazepine-10(2H)-carboxamide]	100 to 500
C[C@@H]1Cc2nn3c(c2CN1C(=O)Nc1ccc(F)c(Cl)c1)C(=O)N(C)N=C(CO)C3 [Compound 235, (R)-N-(3-chloro-4-fluorophenyl)-4-(hydroxymethyl)-2,9-dimethyl-1-oxo-1,2,5,8,9,11-hexahydro-10H-pyrido[4′,3′:3,4]pyrazolo[5,1-d][1,2,5]triazepine-10-carboxamide]	1 to 100
CN1OC(COC(=O)OC(C)(C)C)Cn2nc3c(c2C1=O)CN(C(=O)Nc1ccc(F)c(Cl)c1)CC3 (stereo not drawn) [Compound 054, tert-butyl ((10-((3-chloro-4-fluorophenyl)carbamoyl)-2-methyl-1-oxo-1,2,4,5,8,9,10,11-octahydropyrido[4′,3′:3,4]pyrazolo[5,1-d][1,2,5]oxadiazepin-4-yl)methyl) carbonate]	1 to 100
CN1OC(CF)Cn2nc3c(c2C1=O)CN(C(=O)Nc1cccc(C(F)(F)F)c1)CC3 (stereo not drawn) [Compound 036, 4-(fluoromethyl)-2-methyl-1-oxo-N-(3-(trifluoromethyl)phenyl)-1,4,5,8,9,11-hexahydropyrido[4′,3′:3,4]pyrazolo[5,1-d][1,2,5]oxadiazepine-10(2H)-carboxamide]	1 to 100
CC(=O)NCC1Cn2nc3c(c2C(=O)N(C)O1)CN(C(=O)Nc1cc(Cl)c(F)cc1F)CC3 (single isomer, unassigned) [Compound 173_E1, (S*)-4-(acetamidomethyl)-N-(5-chloro-2,4-difluorophenyl)-2-methyl-1-oxo-1,4,5,8,9,11-hexahydropyrido[4′,3′:3,4]pyrazolo[5,1-d][1,2,5]oxadiazepine-10(2H)-carboxamide]	1 to 100
CN1OC(CNCC(F)F)Cn2nc3c(c2C1=O)CN(C(=O)Nc1ccc(F)c(Br)c1F)CC3 (single isomer, unassigned) [Compound 189_E1, (S*)—N-(3-bromo-2,4-difluorophenyl)-4-(((2,2-difluoroethyl)amino)methyl)-2-methyl-1-oxo-1,4,5,8,9,11-hexahydropyrido[4′,3′:3,4]pyrazolo[5,1-d][1,2,5]oxadiazepine-10(2H)-carboxamide]	1 to 100
CNC(=O)C1Cn2nc3c(c2C(=O)N(C)O1)CN(C(=O)Nc1ccc(F)c(C#N)c1F)CC3 (stereo not drawn) [Compound 195, N10-(3-cyano-2,4-difluorophenyl)-N4,2-dimethyl-1-oxo-1,4,5,8,9,11-hexahydropyrido[4′,3′:3,4]pyrazolo[5,1-d][1,2,5]oxadiazepine-4,10(2H)-dicarboxamide]	1 to 100
CN(CC(F)F)C(=O)C1Cn2nc3c(c2C(=O)N(C)O1)CN(C(=O)Nc1cc(Cl)c(F)cc1F)CC3 (stereo not drawn) [Compound 159, N10-(5-chloro-2,4-difluorophenyl)-N4-(2,2-difluoroethyl)-N4,2-dimethyl-1-oxo-1,4,5,8,9,11-hexahydropyrido[4′,3′:3,4]pyrazolo[5,1-d][1,2,5]oxadiazepine-4,10(2H)-dicarboxamide]	1 to 100
CN1OC(CO)Cn2nc3c(c2C1=O)CN(C(=O)Nc1ccc(F)c(Cl)c1)CC3 (single isomer, unassigned) [Compound 031_E1, (S*)—N-(3-chloro-4-fluorophenyl)-4-(hydroxymethyl)-2-methyl-1-oxo-1,4,5,8,9,11-hexahydropyrido[4′,3′:3,4]pyrazolo[5,1-d][1,2,5]oxadiazepine-10(2H)-carboxamide]	1 to 100
CN1OC(CO)Cn2nc3c(c2C1=O)CN(C(=O)Nc1ccnc(Br)c1F)CC3 (single isomer, unassigned) [Compound 033_E1, (S*)—N-(2-bromo-3-fluoropyridin-4-yl)-4-(hydroxymethyl)-2-methyl-1-oxo-1,4,5,8,9,11-hexahydropyrido[4′,3′:3,4]pyrazolo[5,1-d][1,2,5]oxadiazepine-10(2H)-carboxamide]	1 to 100
CN1OC(CO)Cn2nc3c(c2C1=O)CN(C(=O)Nc1cc(C(F)(F)F)ccc1F)CC3 (single isomer, unassigned) [Compound 148_E1, (S*)—N-(2-fluoro-5-(trifluoromethyl)phenyl)-4-(hydroxymethyl)-2-methyl-1-oxo-1,4,5,8,9,11-hexahydropyrido[4′,3′:3,4]pyrazolo[5,1-d][1,2,5]oxadiazepine-10(2H)-carboxamide]	100 to 500
CN1OC(CO)Cn2nc3c(c2C1=O)CN(C(=O)Nc1cc(Cl)c(F)cc1F)CC3 (stereo not drawn) [Compound 013, N-(5-chloro-2,4-difluorophenyl)-4-(hydroxymethyl)-2-methyl-1-oxo-1,4,5,8,9,11-hexahydropyrido[4′,3′:3,4]pyrazolo[5,1-d][1,2,5]oxadiazepine-10(2H)-carboxamide]	1 to 100
CN1OC(CNCC(F)F)Cn2nc3c(c2C1=O)CN(C(=O)Nc1cc(Cl)c(F)cc1F)CC3 (single isomer, unassigned) [Compound 192_E1, (S*)—N-(5-chloro-2,4-difluorophenyl)-4-(((2,2-difluoroethyl)amino)methyl)-2-methyl-1-oxo-1,4,5,8,9,11-hexahydropyrido[4′,3′:3,4]pyrazolo[5,1-d][1,2,5]oxadiazepine-10(2H)-carboxamide]	1 to 100
C[C@@H]1Cc2nn3c(c2CN1C(=O)Nc1ccc(F)c(Br)c1)C(=O)N(C)OC(CN(C)C)C3 (stereo in doubt) [Compound 094_D1, (4S*,9R)—N-(3-bromo-4-fluorophenyl)-4-((dimethylamino)methyl)-2,9-dimethyl-1-oxo-1,4,5,8,9,11-hexahydropyrido[4′,3′:3,4]pyrazolo[5,1-d][1,2,5]oxadiazepine-10(2H)-carboxamide]	1 to 100
